Measurements: patent publication US20120009131A1, “METHOD FOR PREVENTING OR TREATING AMYLOID BETA PEPTIDE-ASSOCIATED DISEASES OR CONDITIONS, AND METHOD FOR INHIBITING FORMATION, ACCUMULATION OR AGGREGATION OF AMYLOID BETA PEPTIDES” (Sinphar Tian-Li Pharmaceutical Co., Ltd. (Hangzhou), priority 2010, published 2012)
Marks after values point to notes of the source that are not given here.

What was measured:
[1] = target: Human Aβ1-42 (Homo sapiens, UniProt P05067); experiment: Aβ1-42 oligomerization (thioflavin T fluorescence); assay type: biochemical; conditions: 50 μg/ml, 24 hours
Human Aβ1-42, sequence (P05067 672-713 limits assumed): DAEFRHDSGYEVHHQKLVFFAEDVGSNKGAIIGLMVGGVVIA
Procedure: Dried Human Aβ1-42 was taken out from the refrigerator and equilibrated to room temperature. Aβ1-42 was dissolved in 1,1,1,3,3,3-Hexa-fluro-2-propanol (HFIP) to a concentration of 1 mM, and was then placed at room temperature for one hour. The Aβ1-42/HFIP solution was aliquoted by Hamilton syringe, and was then dried under a stream of nitrogen gas, followed by storing at a temperature of −20[…]. Aβ1-42 treated with HFIP was dissolved in PBS, and was vibration-incubated with treatment of each test sample at a concentration of 50 μg/ml and at 4[…] for 24 hours to prepare Aβ1-42 oligomers. The level of Aβ1-42 oligomerization was analyzed by thioflavin T fluorescence (Ex=450 nm, Em=482 nm).

[2] = tested on: extracellular Aβ1-40 accumulation in SH-SY5Y cells; experiment: Effect on extracellular Aβ1-40 accumulation (Human Aβ1-40 immunoassay of the medium); assay type: cell-based; conditions: 50 μg/ml, 24 hours, mean±SD
Procedure: (§1) Wild-type human neuroblastoma cells (SH-SY5Y) were cultured in Eagle's Minimum essential Medium (EMEM)/Ham's F12 medium (1:1 mixture) (containing 10% FBS, 10 units/ml penicillin, 10 μg/ml Streptomycin). Wild-type mouse neuroblastoma Neuro-2a cells were cultured in minimum essential medium (MEM) (containing 10% FBS, 10 units/ml penicillin, 10 μg/ml Streptomycin).
The medium of the wild-type human neuroblastoma SH-SY5Y cells in Example 1 were switched into chemical defined medium (EMEM/F12 medium (Cat. No. 12500-062), Hepes 5 mM, Glucose 0.6%, NaHCO3 3 mM, Glutamine 2.5 mM, Insulin 25 μg/ml, Transferin 100 μg/ml, Progestrone 20 nM, Putrescine 60 μM, Sodium selenite 30 nM, Heparin 2 μg/ml). Each well contained 1×10^5 SH-SY5Y cells in 300 μl of culture medium. Thirty minutes later, each well was treated with the test samples A-D given in Table 1 respectively at a concentration of 50 μg/ml for 24 hours. After that, the level of Aβ1-40 in the medium of each well was analyzed by Human Aβ1-40 immunoassay kits (Catalog #KHB3482 Invitrogen).
Human neuroblastoma SH-SY5Y cells cause extracellular accumulation of Aβ. […] The results were shown in mean±standard deviation (SD) form. Significant difference between the Vehicle control group and the test sample-treated groups were indicated by *., P<0.05, *.*, P<0.01, and. ***., P<0.001.

[3] = tested on: SD rats infused intracerebroventricularly with Aβ1-42; experiment: Water maze spatial performance and probe tests in Aβ1-42-infused rats; assay type: in vivo, rat; conditions: oral
Procedure: (§2) The rats were anesthetized for implantation of an infusion cannula into the left cerebral ventricle thereof. After sewing up the incisions, the rats were returned to their cages. FIG. 7 illustrates the experimental schedule for animal studies. The exploration behavior tests were carried out on day 7, the passive avoidance learning tests were carried out on day 8 and 9, the water maze tests were carried on day 10 to 13, and the probe tests were carried out on day 14, after the start of Aβ1-42 infusion. […] The test samples were administered orally to the rats, 1 hour before the tests (i.e., the exploration behavior tests, the passive avoidance learning tests, and the water maze tests) throughout the experimental period. […] All the test samples were prepared freshly with deionized distilled water (ddH2O) every day, and were administered orally by stomach tube.
(§3) Significant difference between the Aβ1-42 control group and the other experimental groups were indicated by *., P<0.05, *.*, P<0.01, and. ***., P<0.001.

[4] = tested on: acetylcholinesterase; experiment: Acetylcholinesterase activities in brain cortex and hippocampus of rats; assay type: in vivo, rat; conditions: oral; D 2.5 and 5 mg/kg, Aricept 0.75 mg/kg
Procedure: as §2, §3
(§4) After the water maze performance tests, all rats were decapitated and their brains were rapidly removed from the skull. […]

[5] = tested on: SD rats infused intracerebroventricularly with Aβ1-42; experiment: Acetylcholine and choline levels in brain cortex and hippocampus of rats; assay type: in vivo, rat; conditions: oral
Procedure: as §2, §3, §4

[6] = tested on: Aβ-degrading enzymes released by Neuro-2a cells; experiment: Effect on extracellular Aβ1-40 degradation in Neuro-2a conditioned medium; assay type: biochemical, mouse; conditions: Neuro-2a medium, 50 μg/ml, 10 ng synthetic Aβ1-40, 24 hours
Procedure: as §1
Mouse neuroblastoma Neuro-2a cells will release Aβ-degrading enzymes in the chemical defined medium, but will not produce detectable amount of Aβ in the medium. The Neuro 2a cells were incubated in the medium for 24 hours, and then the medium were drawn out without cells. The medium were individually treated with the test samples A-D at a concentration of 50 μg/ml and 10 ng synthetic Aβ1-40 for 24 hours, and then the effects of each test sample on promoting the enzymes in the medium were examined. The remaining Aβ1-40 amount of each well was analyzed by Human Aβ1-40 Immunoassay kits (Catalog #KHB3482 Invitrogen), expressing as percentage, as compared with the Vehicle control group.

[7] = tested on: SD rats infused intracerebroventricularly with Aβ1-42; experiment: Exploration behavior test in Aβ1-42-infused rats; assay type: in vivo, rat; conditions: oral
Procedure: as §2, §3

[8] = tested on: Aβ1-42 plaques in rat brain; experiment: Immunohistochemical staining for Aβ1-42 in the hippocampus section of rat's brain; assay type: in vivo; conditions: oral
Description: In the following Examples 7 to 11 illustrated below, male Sprague-Dawley (SD) rats, weighed 250-300 gm, were obtained from BioLASCO Taiwan Co. Ltd. The SD rats were infused intracerebroventricularly with Aβ1-42 to cause neuronal damage, affecting their memory and learning ability, and leading to form senile plaque-like aggregates in the rat's brain, being used as an animal model of Alzheimer's disease. Alzheimer's disease animal model induced by Aβ can be referred to, for example, Nabeshima et al. (Neuroscience Letters (1994) 170: 63-66)(British Journal of Pharmacology (1999) 126: 235-244).
The rats were anesthetized for implantation of an infusion cannula into the left cerebral ventricle thereof. After sewing up the incisions, the rats were returned to their cages. FIG. 7 illustrates the experimental schedule for animal studies. The exploration behavior tests were carried out on day 7, the passive avoidance learning tests were carried out on day 8 and 9, the water maze tests were carried on day 10 to 13, and the probe tests were carried out on day 14, after the start of Aβ1-42 infusion. The Sham group was treated with TFA solution (64.9% sterile ddH2O, 35% acetonitrile, 0.1% trifluoroacetic acid), and the other experimental groups were treated with 0.5 μl of Aβ1-42 dissolved in TFA solution per hour, corresponding to 300 pmol/12 μl of Aβ1-42 (Tocris 1428; MW: 4514.08) per day. The test samples were administered orally to the rats, 1 hour before the tests (i.e., the exploration behavior tests, the passive avoidance learning tests, and the water maze tests) throughout the experimental period. […] All the test samples were prepared freshly with deionized distilled water (ddH2O) every day, and were administered orally by stomach tube.
All rats were sacrificed and their brains were removed, cut into slices and stained. Neurotransmitters were also tested.
After the water maze performance tests, all rats were decapitated and their brains were rapidly removed from the skull, and then immunohistochemical staining for Aβ1-42 in the hippocampus section of their brains. […]

[9] = tested on: SD rats infused intracerebroventricularly with Aβ1-42; experiment: Dopamine (DA) and metabolites DOPAC and HVA levels in brain cortex and hippocampus of rats; assay type: in vivo, rat; conditions: for DA level / DOPAC level / HVA level: mean±SD
Procedure: as §2, §3
After the water maze performance tests, all rats were decapitated and their brains were rapidly removed from the skull. According to Glowinski and Iversen, the brain cortex and hippocampus were separated, and then each cortex and hippocampus were weighed and were homogenized by addition of 50 mM Na-phosphate buffer (pH 7.8) for analyzing the concentrations of neurotransmitters and the levels of enzymes.

[10] = tested on: SD rats infused intracerebroventricularly with Aβ1-42; experiment: Passive avoidance response test in Aβ1-42-infused rats; assay type: in vivo, rat; conditions: oral
Procedure: as §2, §3

[11] = D 2.5 and 5 mg/kg, Aricept 0.75 mg/kg
[12] = brain hippocampus, oral 2.5 mg/kg
[13] = brain hippocampus, oral 5 mg/kg

C[C@@H]1O[C@@H](O[C@@H]2[C@@H](O)[C@H](OCCc3ccc(O)c(O)c3)O[C@H](CO[C@@H]3O[C@H](CO)[C@@H](O)[C@H](O)[C@H]3O)[C@H]2OC(=O)/C=C/c2ccc(O)c(O)c2)[C@H](O)[C@H](O)[C@H]1O [Test sample B, Echinacoside, reference compound]
activity on inhibiting Aβ1-42 oligomerization (in words) [1]: possess activities on inhibiting Aβ1-42 oligomerization

C[C@@H]1O[C@@H](O[C@@H]2[C@@H](O)[C@H](OCCc3ccc(O)c(O)c3)O[C@H](CO)[C@H]2OC(=O)/C=C/c2ccc(O)c(O)c2)[C@H](O)[C@H](O)[C@H]1O [Test sample C, Acteoside, reference compound]
activity on inhibiting Aβ1-42 oligomerization (in words) [1]: possess activities on inhibiting Aβ1-42 oligomerization | reduction of the level of Aβ1-40 in the medium in comparison with the Vehicle control group [2]: about 20%

Isoacteoside [Test sample D]
water maze spatial performance and probe test, compared with Aricept 0.75 mg/kg ([3]; 5 mg/kg): shows better effects than Aricept 0.75 mg/kg | deficits of the water maze spatial performance and the probe test [3, 11]: can be improved | acetylcholinesterase activities in the brain cortex and hippocampus [4]: reverse the increase in acetylcholinesterase activities | acetylcholine levels in the brain cortex and hippocampus ([5]; 5 mg/kg): particularly potent | acetylcholine levels in the brain cortex and hippocampus [5, 11]: reverse the decrease in acetylcholine levels | activity on inhibiting Aβ1-42 oligomerization (in words) [1]: possess activities on inhibiting Aβ1-42 oligomerization | inhibition of Aβ1-42 oligomerization [1]: 98.93±1.70% | Aβ1-40 degradation (remaining Aβ1-40 amount) [6]: does not accelerate Aβ degradation | exploratory activities, compared with Aricept 0.75 mg/kg ([7]; 5 mg/kg): shows better effects than Aricept 0.75 mg/kg | exploratory activities of the rats ([7]; D 2.5 and 5 mg/kg, Aricept 0.75 mg/kg, day 7): effective in improving the exploratory activities of the rats | plaques found in the brain of the rat ([8]; 2.5 mg/kg): few plaques | plaques found in the brain of the rat ([8]; 5 mg/kg): almost no plaques | plaques in the brain, compared with Aricept-treated rat ([8]; D 2.5 and 5 mg/kg vs Aricept 0.75 mg/kg): less than that in the brain of the rat treated with Aricept | DA level ([9]; brain cortex, oral 2.5 mg/kg): 2.67 ± 0.43 | DOPAC level ([9]; brain cortex, oral 2.5 mg/kg): 12.53 ± 3.33 | HVA level ([9]; brain cortex, oral 2.5 mg/kg): 2.92 ± 0.58 | DA level ([9]; brain cortex, oral 5 mg/kg): 3.84 ± 0.47* | DOPAC level ([9]; brain cortex, oral 5 mg/kg): 13.80 ± 3.03 | HVA level ([9]; brain cortex, oral 5 mg/kg): 2.74 ± 0.69 | DA level [9, 12]: 5.41 ± 1.30*** | DOPAC level [9, 12]: 4.98 ± 1.15 | HVA level [9, 12]: 3.68 ± 0.46 | DA level [9, 13]: 4.07 ± 0.59*** | DOPAC level [9, 13]: 4.13 ± 0.45 | HVA level [9, 13]: 3.29 ± 0.25 | DA levels in the cortex and hippocampus (in words) ([9]; oral, D 2.5 and 5 mg/kg, Aricept 0.75 mg/kg): reverse the decrease in DA levels | passive avoidance response, compared with Aricept 0.75 mg/kg ([10]; 2.5 mg/kg): shows equivalent effect with Aricept 0.75 mg/kg | passive avoidance response, compared with Aricept 0.75 mg/kg ([10]; 5 mg/kg): shows better effects than Aricept 0.75 mg/kg | passive avoidance learning impairment (step-through latency) [10, 11]: reverse the passive avoidance learning impairment | reduction of the level of Aβ1-40 in the medium in comparison with the Vehicle control group [2]: about 47.44±16.62%
